Experimental data as given in US20240043435A1, “TYK-2 INHIBITOR” (BEIGENE, LTD., priority 2020, published 2024).
Like-named read-outs stand apart in the source and are kept apart here.

Columns and labels:
[1] = target: T1, TYK2-JH2 (aa 575-869, in-house) protein (Homo sapiens, UniProt P29597); test: TYK2-JH2 biochemical assay (HTRF probe displacement); assay type: binding; settings: for Selectivity fold (TYK2/JAK1): JAK1-JH2 IC50 vs TYK2-JH2 IC50; for fold less potent (orth vs meta methylsulfonyl; B15 vs B1, B14 vs B5): Tyk2 JH2 bio-chemical potency
T1 construct: TYK2-JH2 (aa 575-869, in-house) protein; made in house
Procedure, shortened: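 Recombinant TYK2-JH2 (0.2 nM) was pre-incubated 0.5 h at room temperature with compounds (10 doses, 5-fold dilution; 500× DMSO stocks from 500 uM) in 20 mM HEPES pH 7.5, 10 mM MgCl2, 0.005% BSA, 2 mM DTT, 0.015% Brij-35. Probe displacement was read by HTRF (ex337, em620/665 nm); IC50 from four-parameter logistic fit.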

[2] = target: T2, JAK1-JH2 protein (aa 561-860, in-house) (Homo sapiens, UniProt P23458); test: JAK1-JH2 biochemical assay (HTRF probe displacement); assay type: binding
T2 construct: JAK1-JH2 protein (aa 561-860, in-house); made in house
Protocol: Assay B: JAK1-JH2 Biochemical Assay
Compounds disclosed herein were tested for blocking of JAK1-JH2 protein (aa 561-860, in-house) with its probe in an assay based on Homogeneous Time Resolved Fluorescence. Compound dilution is done according to the following protocol: (1) Prepare 500× compounds solution in DMSO from 500 uM by 5-fold dilution, total 10 doses were included; (2) Prepare 10× compounds solution in an assay buffer containing 20 mM HEPES, pH 7.5, 10 mM MgCl2, 0.005% BSA, 2 mM DTT, 0.015% Brij-35 by transferring 1 μl serial 500× stock solution into 49 μl assay buffer. 4 μL of 1.17 nM recombinant JAK1-JH2 protein was pre-incubated with 1 μl of 10× serial dilution of compounds at room temperature for 0.5 hour. […] The HTRF signals (ex337 nm, em620 nm/665 nm) were read on BMG PHERAstar FS instrument. The inhibition percentage of JAK1 interaction with its probe in presence of increasing concentrations of compounds was calculated based on the ratio of fluorescence at 615 nm to that at 665 nm. The IC50 for each compound was derived from fitting the data to the four-parameter logistic equation by Dotmatics.

[3] = system: JAK2, TYK2/p-STAT4 (Tyr693) activated by IL-12 in NK-92 cell line; test: IL-12-JAK2, TYK2/p-STAT4 (Tyr693) inhibition IC50 cellular assay; assay type: cell-based; settings: for Selectivity fold (TYK2/JAK2): Cellular assay, pSTAT5/GM-CSF IC50 vs pSTAT4/IL-12 IC50; for IC50: NK92, Cellular assay, read-out: pSTAT4/IL-12 IC50
Procedure, shortened: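 NK-92 cells were starved overnight without IL-2 and preincubated 1 h at 37° C with compound (8 doses, 10000–0.61 nM, 4-fold, 0.2% DMSO). They were then stimulated with IL-12 (40 ng/ml final) for 30 min. Lysate p-STAT4 (Tyr693) was read by AlphaLISA SureFire; IC50 from four-parameter logistic fit.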

pSTAT5/GM-CSF = pSTAT5/GM-CSF cellular assay (JAK2 selectivity); assay type: cell-based
[4] = Mouse PK study, oral administration; assay type: in vivo, male CD-1 mouse
Protocol: Biological Assay: Mouse PK Study
The pharmacokinetics of compounds were evaluated in male CD-1 mouse via Oral Administration (dose of 10 mg/kg). For oral administration study, test compounds were added in 0.5% MC in water and administrated to mice at 10 mg/kg by gavage. Blood was collected into EDTA-K2 anticoagulant tube at 15, and 30 min and 1, 2, 4, 8 and 24 h after administration. Approximately 30 μL blood was collected at each time point. And then the blood was centrifuged at 2000 g for 5 min at 4° C. using a centrifuge to obtain the plasma. The plasma sample was transferred into a tube and stored in a freezer at approximately −70° C. until the determination of concentration by LC-MS/MS. Pharmacokinetic parameters were estimated by using WinNonlin software (version 8.1, Pharsight Corporation, CA, USA) with non-compartmental method. The following pharmacokinetic parameters were calculated, whenever possible from the plasma concentration-time data: Tmax, Cmax, AUClast, AUCinf, T1/2 for PO administration. All animals were fasted before experiment.

[5] = Biochemical assay, read-out: TYK2-JH2 IC50
[6] = read-out: Tyk2 JH2 domain bio-chemical potency
[7] = Po dosing (10 mg/kg), male CD-1 mouse
[8] = male, CD-1, plasma, Po 10 mg/kg mouse

T1 sequence (P29597 575-869): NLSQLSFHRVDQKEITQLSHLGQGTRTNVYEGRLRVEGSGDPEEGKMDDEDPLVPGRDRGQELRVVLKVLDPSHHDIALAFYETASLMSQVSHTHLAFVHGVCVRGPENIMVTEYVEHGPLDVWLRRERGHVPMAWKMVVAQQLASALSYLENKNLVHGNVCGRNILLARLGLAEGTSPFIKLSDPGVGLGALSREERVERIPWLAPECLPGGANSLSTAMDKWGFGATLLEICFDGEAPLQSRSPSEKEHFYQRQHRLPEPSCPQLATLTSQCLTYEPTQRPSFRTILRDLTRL
T2 sequence (P23458 561-860): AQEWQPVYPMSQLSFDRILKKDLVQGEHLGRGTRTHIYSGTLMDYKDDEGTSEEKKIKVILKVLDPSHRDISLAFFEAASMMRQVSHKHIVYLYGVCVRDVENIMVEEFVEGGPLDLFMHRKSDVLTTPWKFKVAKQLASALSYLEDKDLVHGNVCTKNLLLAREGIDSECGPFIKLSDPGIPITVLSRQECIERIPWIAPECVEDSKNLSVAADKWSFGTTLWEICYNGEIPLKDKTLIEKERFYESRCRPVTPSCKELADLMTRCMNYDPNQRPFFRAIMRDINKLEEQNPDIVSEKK

Row | SMILES | Selectivity fold (TYK2/JAK1) ([1]; Biochemical assay) [fold] | IC50 [1, 5] [nM] | IC50 [2] [nM] | Selectivity fold (TYK2/JAK2) [3] [fold] | IC50 [3] [nM] | IC50 (pSTAT5/GM-CSF) [nM] | further results
1 | CC(=O)Nc1cc(Nc2cccc(S(C)(=O)=O)c2)c(-c2cccnn2)cn1 [Example A1, N-(4-((3-(methylsulfonyl)phenyl)amino)-5-(pyridazin-3-yl)pyridin-2-yl)acetamide] | 288 | 0.052 | 15 | >125 | 79.5 | > 10000 | 
2 | CC(=O)Nc1cc(Nc2cccc(S(C)(=O)=O)c2)c(-c2cnc(C)cn2)cn1 [Example A4, N-(5-(5-methylpyrazin-2-yl)-4-((3-(methylsulfonyl)phenyl)amino)pyridin-2-yl)acetamide] | 113 | 0.52 | 59 |  |  |  | 
3 | CC(=O)Nc1cc(Nc2cccc(S(C)(=O)=O)c2)c(-c2cnccn2)cn1 [Example A5, N-(4-((3-(methylsulfonyl)phenyl)amino)-5-(pyrazin-2-yl)pyridin-2-yl)acetamide] | 120 | 0.49 | 59 |  |  |  | 
4 | CC(=O)Nc1cc(Nc2cccc(S(C)(=O)=O)c2)c(-c2cc(C)nc(C)n2)cn1 [Example A6, N-(5-(2,6-dimethylpyrimidin-4-yl)-4-((3-(methylsulfonyl)phenyl)amino)pyridin-2-yl)acetamide] | 128 | 0.14 | 18 | >196 | 51 | > 10000 | 
5 | CC(=O)Nc1cc(Nc2cccc(S(C)(=O)=O)c2)c(N2CCCC2=O)cn1 [Example A7, N-(4-((3-(methylsulfonyl)phenyl)amino)-5-(2-oxopyrrolidin-1-yl)pyridin-2-yl)acetamide] | >14 | 670 | > 10000 |  |  |  | 
6 | CC(=O)Nc1cc(Nc2cccc(S(C)(=O)=O)c2)c(-c2ccccn2)cn1 [Example B1, N-(4′-((3-(methylsulfonyl)phenyl)amino)-[2,3′-bipyridin]-6′-yl)acetamide] | 194 |  | 7.4 | >1011 | 9.89 | > 10000 | IC50 [1, 6]: 0.038 nM
7 | CC(=O)Nc1cc(Nc2ccccc2)c(-c2ccccn2)cn1 [Example B3, N-(4′-(phenylamino)-[2,3′-bipyridin]-6′-yl)acetamide] | 8.1 | 1.1 | 9 |  |  |  | 
8 | CC(=O)Nc1cc(Nc2cccc(S(C)(=O)=O)n2)c(-c2ccccn2)cn1 [Example B5, N-(4′-((6-(methylsulfonyl)pyridin-2-yl)amino)-[2,3′-bipyridin]-6′-yl)acetamide] | 19 |  | 0.31 | >41152 | 0.243 | > 10000 | fold more potent than Example B1 in bio-chemical assay [1]: 2 fold; IC50 [1, 6]: 0.016 nM; fold more potent than Example B1 in cellular assay [3]: 40 fold
9 | COc1cccc(Nc2cc(NC(C)=O)ncc2-c2ccccn2)c1 [Example B13, N-(4′-((3-methoxyphenyl)amino)-[2,3′-bipyridin]-6′-yl)acetamide] | 42 | 0.43 | 18 | >54 | 183 | > 10000 | 
10 | CC(=O)Nc1cc(Nc2ncccc2S(C)(=O)=O)c(-c2ccccn2)cn1 [Example B14, N-(4′-((3-(methylsulfonyl)pyridin-2-yl)amino)-[2,3′-bipyridin]-6′-yl)acetamide] | 1 | 80 | 145 |  |  |  | fold less potent (orth vs meta methylsulfonyl; B15 vs B1, B14 vs B5) [1]: 5000 fold
11 | CC(=O)Nc1cc(Nc2ccccc2S(C)(=O)=O)c(-c2ccccn2)cn1 [Example B15, N-(4′-((2-(methylsulfonyl)phenyl)amino)-[2,3′-bipyridin]-6′-yl)acetamide] | 1 | 117 | 234 |  |  |  | fold less potent (orth vs meta methylsulfonyl; B15 vs B1, B14 vs B5) [1]: 3079 fold
12 | CS(=O)(=O)c1cccc(Nc2cc(N)ncc2-c2ccccn2)c1 [Example B19, N4′-(3-(methylsulfonyl)phenyl)-[2,3′-bipyridine]-4′,6′-diamine] | 14.2 | 18 | 257 |  |  |  | 
13 | CS(=O)(=O)c1cccc(Nc2cc(NC(=O)C3CC3)ncc2-c2ccccn2)c1 [Example B20, N-(4′-((3-(methylsulfonyl)phenyl)amino)-[2,3′-bipyridin]-6′-yl)cyclopropanecarboxamide] | 50 | 1.5 | 76 |  |  |  | Tyk2 inhibition potency on replacing R methyl (Example B1) by cyclopropane ([1]; compared with Example B1): dramatically decreased
14 | COc1cc(Nc2cc(NC(C)=O)ncc2-c2ccc(F)cn2)nc(S(C)(=O)=O)c1 [Example F22, N-(5-fluoro-4′-((4-methoxy-6-(methylsulfonyl)pyridin-2-yl)amino)-[2,3′-bipyridin]-6′-yl)acetamide] |  | 0.026 |  | >5494 | 1.82 | > 10000 | AUClast [4, 7]: 2098 ng·h/mL; T1/2 [4, 7]: 1.48 h; AUC [4, 8]: 2100 ng·h/mL; Cmax ([4]; plasma, Po dosing (10 mg/kg), male CD-1 mouse, read-out: Cmax): 911 ng/mL
15 | CC(=O)Nc1cc(Nc2cccc(S(C)(=O)=O)c2)c(-c2ccc(N3CCOCC3=O)cn2)cn1 [Example G1, N-(4′-((3-(methylsulfonyl)phenyl)amino)-5-(3-oxomorpholino)-[2,3′-bipyridin]-6′-yl)acetamide] |  | 0.026 | 4.9 |  | 14.4 | > 10000 | Selectivity fold (TYK2/JAK1) ([2]; JAK1-JH2 vs TYK2-JH2): 188 fold; Selectivity fold (TYK2/JAK2) (pSTAT5/GM-CSF; pSTAT5/GM-CSF vs pSTAT4/IL-12): >694 fold
16 | CC(=O)Nc1cc(Nc2cccc(S(C)(=O)=O)c2)c(-c2ccc(C(C)(C)O)cn2)cn1 [Example H1, N-(5-(2-hydroxypropan-2-yl)-4′-((3-(methylsulfonyl)phenyl)amino)-[2,3′-bipyridin]-6′-yl)acetamide] | 87.5 | 0.016 | 1.4 | >3846 | 2.6 | > 10000 | 
17 | COc1cc(Nc2cc(NC(C)=O)ncc2-c2ccc(C(C)(C)O)cn2)nc(S(C)(=O)=O)c1 [Example H11, N-(5-(2-hydroxypropan-2-yl)-4′-((4-methoxy-6-(methylsulfonyl)pyridin-2-yl)amino)-[2,3′-bipyridin]-6′-yl)acetamide] |  | 0.027 |  | >10000 | 1 | > 10000 | AUClast [4, 7]: 19.3 ng·h/mL; Cmax [4, 7]: 8.73 ng/mL; T1/2 [4, 7]: 2.07 h; AUC [4, 8]: 19.4 ng·h/mL; Cmax ([4]; male, CD-1, plasma, Po 10 mg/kg mouse, read-out: Cmax): 7 ng/mL
